Drawing on BindingDB's records for doi:10.1016/j.ejmech.2019.01.044 (Institute of Agricultural and Food Biotechnology, 2019), this text covers IC50 for 4 compounds.

SMILES strings stand for the structures.

As a reminder, the IC50 is the midpoint of a concentration-inhibition curve.

In the assay the target is T1, Proteasome subunit beta type-5 (Rattus norvegicus, UniProt P28075).
T1 sequence (P28075 whole entry): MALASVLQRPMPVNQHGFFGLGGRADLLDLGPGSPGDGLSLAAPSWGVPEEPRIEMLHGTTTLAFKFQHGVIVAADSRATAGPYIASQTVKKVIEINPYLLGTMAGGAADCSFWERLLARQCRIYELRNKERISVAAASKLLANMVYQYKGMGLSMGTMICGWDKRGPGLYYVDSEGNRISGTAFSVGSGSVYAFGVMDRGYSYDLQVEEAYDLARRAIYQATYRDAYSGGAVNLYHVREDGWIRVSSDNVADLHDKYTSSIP
Description: Inhibition of chymotrypsin-like activity of rat liver 26 proteasome assessed as decrease in fluorescence using succinyl-Leu-Leu-Val-Tyr-4-methylcoumaryl-7-amide as substrate preincubated for 30 mins followed by addition of substrate and measured after 1 hr by fluorescence based method.
As to `C=CC(/C=C\c1ccc(O)cc1)c1ccc(O)cc1` (centres undefined), the IC50 is 71.3 nM.

`COc1cc(O)c(C(=O)c2ccc(O)cc2)c(O)c1`: the IC50 was more than 960 nM.

Take `COc1cc(O)ccc1CCCc1ccc(O)cc1` [BROUSSONIN B]: the concentration for half-maximal inhibition (IC50) was 178 nM.

Turning to `Oc1ccc(CC2COc3cc(O)ccc3C2)cc1` (centres undefined), the IC50 was found to be 234 nM.
